{
  "source": "paper PMC3752463",
  "about": "(Biochemical and biophysical research communications, 2013)",
  "key": {"HIV": {"system": "HIV", "details": "ref [12]; cited from earlier work"}, "CXCR4 [1]": {"target": "T1, CXCR4 (Homo sapiens, UniProt P61073)", "T1 sequence (P61073 whole entry)": "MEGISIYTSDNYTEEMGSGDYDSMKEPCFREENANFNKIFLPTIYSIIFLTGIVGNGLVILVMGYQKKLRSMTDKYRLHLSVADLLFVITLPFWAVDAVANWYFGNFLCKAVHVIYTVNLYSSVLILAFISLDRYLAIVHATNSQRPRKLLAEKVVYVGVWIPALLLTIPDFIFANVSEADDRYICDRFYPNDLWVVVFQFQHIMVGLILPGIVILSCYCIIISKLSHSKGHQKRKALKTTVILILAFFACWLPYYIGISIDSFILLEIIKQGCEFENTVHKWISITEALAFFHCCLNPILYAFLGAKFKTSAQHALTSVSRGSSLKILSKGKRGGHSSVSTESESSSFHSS", "details": "ref [12], cited from earlier work; for IC50: read-out: IC50 (anti-CXCR4 mAb 12G5 competitive assay), previously reported, anti-CXCR4 mAb 12G5 competitive assay"}, "CXCR4 [2]": {"target": "T1, CXCR4", "details": "12G5 CXCR4 competitive binding assay"}},
  "note": "Square brackets hold non-standard residues; d marks the D form. Ends that are not written are not given here.",
  "data": [
    {"sequence": "LGASWHRPDKCCLGYQKRPLP [DV1]", "values": [
      {"measurement": "anti-HIV entry activity (in words)", "setting": "HIV", "value": "anti-HIV entry activity"},
      {"measurement": "CXCR4 binding affinity (in words), earlier work", "setting": "CXCR4 [1]; in words", "value": "moderate binding affinity with CXCR4"}
    ]},
    {"sequence": "LGASWHRPDKCCLGYQKRPLP ([dL]G[dA][dS][dW][dH][dR][dP][dD][dK][dC][dC][dL]G[dY][dQ][dK][dR][dP][dL][dP]-NH2; cysteine pairing not given here) [DV1]", "values": [
      {"measurement": "IC50", "setting": "CXCR4 [1]", "value": 236, "unit": "nM"}
    ]},
    {"sequence": "LGASWHRPDK [DV3]", "values": [
      {"measurement": "CXCR4 binding potency relative to DV1", "setting": "CXCR4 [2]", "value": "about two-fold less potent than DV1"}
    ]},
    {"sequence": "LGASWHRPDK ([dL]G[dA][dS][dW][dH][dR][dP][dD][dK]-NH2; N-terminus assumed; SMILES CC(C)C[C@@H](N)C(=O)NCC(=O)N[C@H](C)C(=O)N[C@H](CO)C(=O)N[C@H](Cc1c[nH]c2ccccc12)C(=O)N[C@H](Cc1c[nH]cn1)C(=O)N[C@H](CCCNC(=N)N)C(=O)N1CCC[C@@H]1C(=O)N[C@H](CC(=O)O)C(=O)N[C@H](CCCCN)C(N)=O) [DV3]", "values": [
      {"measurement": "IC50", "setting": "CXCR4 [1]", "value": 440, "unit": "nM"}
    ]}
  ]
}
